Data published in patent US10226467B2, “Compounds for the treatment of myotonic dystrophy” (UNIVERSITAT DE VALÈNCIA, priority 2014, dated 2019).

Experiments:
MBNL1 in DM1 myoblasts = test: Quantification of Mbl expression or localization (anti-MBNL1 immunodetection); format: cell-based, human; details: FIG. 6, at 1 microM, one day, versus DMSO
Protocol: Immortalized transdifferentiated DM1 fibroblasts were seeded in a […] (8000 cell/per well) in standard media. To achieve the differentiation of the fibroblast to myoblasts, we induced MyoD expression by changing the standard media to differentiation media with Doxocycline and without serum. 24 h after induction, the compounds were added the cells at different concentrations, always maintaining the concentration of the solvent (DMSO) at 1% in the media. Every concentration of compound was tested in three different wells. 24 h after adding the compounds the cells were fixed with paraformaldehyde 4% in PBS and Mbl detection using monoclonal anti-MBNL1 antibody was performed counterstaining with Hoechst to detect the nuclei. Incell 200 plate reader confocal was used for detection and quantification of the parameters selected and the data was analyzed using Graphpad software for statistical comparison of results.

[1] = tested on: ribonuclear foci in DM1 fibroblasts; test: Ribonuclear foci per cell (in situ hybridization of CUG repeat RNA); format: cell-based, human; details: FIG. 4, versus DMSO
Excerpt: Its reduction is typically used as evidence of desired activity against myotonic dystrophy in cell culture models because MBNL proteins are sequestered in ribonuclear foci. Since MBNL proteins are limiting in myotonic dystrophies an increase in free MBNLs is expected to be therapeutic. • Evidences from Human Myoblasts:
Cell model of the disease (provided by the D. Furling's laboratory, Institute of Myologie, Paris) consisted of normal and DM1 (1300 CTG repeats) immortalized (hTERT) skin fibroblasts expressing conditional MyoD. Fibroblast cells were grown in Dulbecco's Modified Eagle Medium (DMEM) with 4.5 g/L of glucose, 1% of penicillin and streptomycin (P/S) and 10% foetal bovine serum (FBS) (Sigma). Fibroblasts were transdifferentiated in myoblasts by inducing expression of MyoD. […]
In situ hybridization with CUG repeat RNA. […] Images were taken using a Leica DM2500 fluorescence microscope and foci were manually counted from at least 50 cells per compound.
DM1 fibroblasts were seeded in a […] (8000 cell/per well) in standard media one day before adding the compounds to the media. […] Incell 200 plate reader confocal was used for detection and quantification of the parameters selected and the data was analyzed using Graphpad software for statistical comparison of results.

[2] = tested on: 6-FAM-(CUG)23 probe (CUG repeats RNA); test: Fluorescence polarization assay of binding to CUG repeat RNA; details: FIG. 2; increasing concentrations; compared to a control compound that does not bind CUG repeats
Protocol: This was assessed in fluorescence polarization spectroscopy experiments. In these tests, when polarized light excites a fluorophore conjugated to a small molecule, it undergoes rotational diffusion faster than the time required for light emission occurs, resulting in a random arrangement of the molecule in the fluorescence emission time (depolarization). However, the rotation of the molecule becomes slower depending on the viscosity of the medium or the molecular volume, increasing the polarization of the emitted light. Thus, by measuring changes in polarization of an RNA with 23 CUG repeats conjugated to the fluorophore carboxyfluorescein, FAM (CUG) 23, we can consider whether a candidate molecule binds to the RNA.
Fluorescent CUG RNA (carboxyfluorescein (6-FAM)-labeled) was incubated with increasing concentrations of example compounds. […]
Carboxyfluorescein-labeled CUG RNA (6-FAM-CUG23) at 6 nM was incubated with the compounds at different concentrations in binding buffer (50 mM Tris-HCl pH 7.0, 250 mM NaCl, 50 μM ZnCl2, 10% glycerol, 1 mM DTT) on ice for 20 min in the dark. Polarization was measured in an EnVision® Multilabel Reader using as excitation filter FP480 and as emission filter FP535.

[3] = tested on: 6-FAM-(CUG)23 probe (CUG repeats RNA); details: positive control, Warf et al. 2009; cited from earlier work

Cn1c(=O)[nH]c2ncn(C)c2c1=O [Compound 6, 1,7-Dimethylxanthine]
Mbl staining intensity in nuclei (MBNL1 in DM1 myoblasts): increase significantly

CC(C)Cn1c(=O)n(C)c(=O)c2[nH]cnc21 [Compound 7, 3-Isobutyl-1-methylxanthine]
Mbl staining intensity in nuclei (MBNL1 in DM1 myoblasts): increase significantly

Cn1c(=O)[nH]c(=O)c2[nH]cnc21 [Compound 8, 3-Methylxanthine]
Mbl staining intensity in nuclei (MBNL1 in DM1 myoblasts): increase significantly

CCCn1c(=O)c2[nH]cnc2n(CC)c1=O [Compound 9, 3-Ethyl-1-propylxanthine]
Mbl staining intensity in nuclei (MBNL1 in DM1 myoblasts): increase significantly

Cn1c(=O)c2c(ncn2CCCCCCCn2cnc3c2c(=O)n(C)c(=O)n3C)n(C)c1=O [Theophylline-C7]
mean number of ribonuclear foci per cell [1]: significantly decreased

Cn1c(=O)c2c(ncn2CCCCCCCCCn2cnc3c2c(=O)n(C)c(=O)n3C)n(C)c1=O [Theophylline-C9]
binding to CUG repeats (polarization of 6-FAM-(CUG)23 probe relative to probe alone) [2]: very strong bond
mean number of ribonuclear foci per cell [1]: significantly decreased

N=C(N)c1ccc(OCCCCCOc2ccc(C(=N)N)cc2)cc1 [pentamidine]
binding to CUG repeats (previously shown) [3]: attached to the CUG repeats
